One may read the IC50 as the concentration at which inhibition is half-maximal.

SMILES strings stand for the structures.

From patent US5132320A, “Squalene synthetase inhibitors” (Merck & Co., Inc., priority 1990, dated 1992) come the findings set out here.

One assay has as its target T1, Squalene Synthetase (Rattus norvegicus, UniProt Q02769).
T1 construct: from tissue; host or cells: liver microsomes of male Charles River CD rats fed 0.1% lovastatin for 4 days
T1 sequence (Q02769 1-416): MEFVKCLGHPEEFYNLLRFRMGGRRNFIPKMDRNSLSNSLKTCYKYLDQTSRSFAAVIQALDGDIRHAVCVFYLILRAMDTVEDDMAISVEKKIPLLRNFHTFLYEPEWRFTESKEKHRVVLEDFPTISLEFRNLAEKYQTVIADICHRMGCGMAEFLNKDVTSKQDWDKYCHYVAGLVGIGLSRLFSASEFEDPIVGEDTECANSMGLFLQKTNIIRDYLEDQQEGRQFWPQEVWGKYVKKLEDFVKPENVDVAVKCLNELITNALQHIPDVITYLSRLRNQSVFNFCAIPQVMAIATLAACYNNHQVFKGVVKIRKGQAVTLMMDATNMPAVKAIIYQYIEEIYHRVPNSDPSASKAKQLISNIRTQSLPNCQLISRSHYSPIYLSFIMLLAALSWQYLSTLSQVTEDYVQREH
Put plainly: squalene synthetase assay (rat liver microsomes, [4-14C]farnesyl-pyrophosphate). In kind it is biochemical. As to conditions: 30° C., 20 minutes, pH 7.5. Here is the method: The intrinsic squalene synthetase inhibitory activity of representative compounds of this invention was measured by the standard in vitro protocol described below:
PREPARATION OF MICROSOMES
Male, Charles River CD rats (120 to 150 g) were fed a diet containing 0.1% lovastatin for 4 days. The livers from these rats were homogenized in 5 volumes (ml/g) of ice cold 50 mM HEPES (4-(2-hydroxyethyl)-1-piperazine-ethanesulfonic acid), 5 mM EDTA (ethylenediaminetetraacetic acid) pH 7.5 with a Potter-Elvehjem type tissue grinder. The homogenate was centrifuged twice at 20,000×g for 15 minutes at 4° C., discarding the pellet each time. The supernatant was then centrifuged at 100,000×g for 1 hour at 4° C. The resulting microsomal pellet was resuspended in a volume of the above homogenizing buffer equal to one-fifth the volume of the original homogenate. This microsomal preparation has a protein concentration of about 7 mg/ml. The microsomal suspensions were stored in aliquots at -70° C. Squalene synthetase activity in these aliquots is stable for at least several months.
Partial Purification of Prenyl Transferase
Prenyl transferase was purified to use in the enzymatic synthesis of radiolabelled farnesyl pyrophosphate. […]
A general note: Liver microsomes are a subcellular fraction often used to study metabolism.

A further assay concerns Fus. oxysporum MF4014. Put plainly: antifungal microtiter dilution assay, filamentous fungi (MIC). In kind it is cell-based. As to conditions: Fusarium oxysporum, 42 hours, 28° C., read-out: Minimum Inhibitory Concentration. How it is done:
The compounds are particularly active towards filamentous fungi and yeasts including Candida albicans and Crypt. neoformans. The sensitivity of filamentous fungi and yeast was determined using inhibitor dilution assays in microtiter format. The compounds were dissolved in DMSO at 2 mg/ml and serially diluted in 0.1M phosphate buffer, pH 7.0 in the microtiter dish from 100 to 0.006 μg/ml. A standardized spore suspension for testing the filamentous fungi was prepared by inoculating Antibiotic Medium #3 containing 1.5% agar with spores such that 1.5×10^3 colony forming units were added per well. The microtiter wells were filled with 50 μl of buffer containing compound and 50 μl of inoculated medium. The sensitivity of yeasts was determined by inoculating yeast nitrogen base containing 1% dextrose (YNB/G) with aliquots of an overnight yeast culture grown in Yeast Morphology (YM) media at 35° C. and diluting in YNB/G to yield a final concentration of 1.5-7.5×10^3 colony forming units/well. One hundred fifty μl of inoculated media was added per well. To test the sensitivity of yeast, compound was solubilized in 10 percent aqueous DMSO at 2.56 mg/ml. The compound was diluted serially in YNB/G from 128 to 0.06 μg/ml. The wells were filled with 150 μl of drug containing media. […]

`CC=CCCCCC=CCCCCC(=O)OC1C(O)C2(CCC(C)C(O)C(C)CC=Cc3ccccc3)OC(C(=O)OC)C(O)(C(=O)OC)C1(C(=O)OC)O2` (stereo not drawn) [Compound B]: on Squalene Synthetase, the IC50 was found to be 5000 nM. On to `CC=CCCCCC=CCCCCC(=O)OC1C(O)C2(CCC(C)C(O)C(C)CC=Cc3ccccc3)OC(C(=O)O)C(O)(C(=O)O)C1(C(=O)O)O2` (stereo not drawn) [Compound A], for which the MIC in the assay with Fus. oxysporum MF4014 was > 100 µg/mL. The IC50 against Squalene Synthetase is 5 nM.
